Reference: ChEMBL document CHEMBL1137512, “Synthesis and evaluation of chloromethyl sulfoxides as a new class of selective irreversible cysteine protease inhibitors” (Bioorg Med Chem, 2007)
Activity calls are given as the source filed them. The calls are words filed in the database; no cut-off is given here.

Legend:
[1] = Inhibition of papain by colorimetric assay
[2] = Binding affinity to papain at 10 uM by fluorescent binding test

| SMILES | Ki [1] | Activity [1] | Activity [2] |
| --- | --- | --- | --- |
| C[C@@H](C[S+]([O-])CCl)NC(=O)OC(C)(C)C (stereo partly drawn) | 1430 µM | – | – |
| CC(C)[C@@H](C[S+]([O-])CCl)NC(=O)OC(C)(C)C (stereo partly drawn) | 543 µM | – | – |
| CC(C)C[C@@H](C[S+]([O-])CCl)NC(=O)OC(C)(C)C (stereo partly drawn) | 485 µM | – | – |
| CC(C)(C)OC(=O)NCC[S+]([O-])CCl (stereo not drawn) | – | inactive | – |
| CC(C)(C)OC(=O)N[C@@H](Cc1ccccc1)C(=O)NCC[S+]([O-])CCl (stereo partly drawn) | 3670 µM | – | – |

Continued, values first:

| Ki [1] | Activity [1] | Activity [2] | SMILES |
| --- | --- | --- | --- |
| 142 µM | – | – | CC(C)(C)OC(=O)N[C@@H](Cc1ccccc1)C[S+]([O-])CCl (stereo partly drawn) |
| 471 µM | – | 40% | CN(C)c1cccc2c(S(=O)(=O)NCC(=O)NCC[S+]([O-])CCl)cccc12 (stereo not drawn) |
